Patent US20080194522A1, “Development of Fluorogenic Substrates For Monoamine Oxidases (Mao-A and Mao-B)” (priority 2004, published 2008)

What was measured:
[1] = Photophysical characterization (absorbance, extinction coefficient, emission, quantum yield); format: physicochemical; details: for fluorescence, in words: aqueous / phosphate buffer
Method: Extinction coefficients were the average of three independent determinations of three different readings from the lowest energy transition at three concentrations. Quantum yields are the average of three determinations of both quantum yield standard 9,10-diphenylanthracene and the synthesized coumarines at 340 nm unless otherwise indicated.
All spectra were recorded in 100 mM sodium phosphate (pH 7.4) unless otherwise indicated. Recorded λmax is that of the longest wavelength transition. Extinction coefficients were reported as the average of at least three independent preparations of the probes. Fluorescence measurements were taken on a Jobin Yvon Fluorolog fluorescence spectrofluorometer (slits 3, HV 750) in 100 mM sodium phosphate pH 7.4 buffer unless otherwise indicated. Quantum yields were measured relative to 9,10 diphenylanthracene in EtOH.4 Reported quantum efficiencies are the average of at least three independent preparations of the probes.
The extinction coefficient ε relates the absorbance of a compound to its concentration as expressed in Beer's law (A=εbc where A is absorbance, b is pathlength, and c is concentration). Extinction coefficients were the average of three independent determinations of three different readings of absorbance from the lowest energy transition at three concentrations. The quantum yield of fluorescence is the fraction of absorbed photons that lead to fluorescence; the number of photons fluoresced divided by the number of photons absorbed. To obtain the quantum yields of the synthesized coumarines their efficiency was compared to standard 9,10-diphenylanthracene at 340 nm in three different determinations. The effect of different solvents on the fluorescence of the compounds was also tested. The compounds were dissolved in methanol, chloroform and toluene and their emissions spectrum was taken.

MAO-B = biological target: T1, MAO-B (Bos taurus, UniProt P56560); assay: Monoamine oxidase B substrate assay, beef liver mitochondria, fluorescence detection of indole product
T1 sequence (P56560 1-520): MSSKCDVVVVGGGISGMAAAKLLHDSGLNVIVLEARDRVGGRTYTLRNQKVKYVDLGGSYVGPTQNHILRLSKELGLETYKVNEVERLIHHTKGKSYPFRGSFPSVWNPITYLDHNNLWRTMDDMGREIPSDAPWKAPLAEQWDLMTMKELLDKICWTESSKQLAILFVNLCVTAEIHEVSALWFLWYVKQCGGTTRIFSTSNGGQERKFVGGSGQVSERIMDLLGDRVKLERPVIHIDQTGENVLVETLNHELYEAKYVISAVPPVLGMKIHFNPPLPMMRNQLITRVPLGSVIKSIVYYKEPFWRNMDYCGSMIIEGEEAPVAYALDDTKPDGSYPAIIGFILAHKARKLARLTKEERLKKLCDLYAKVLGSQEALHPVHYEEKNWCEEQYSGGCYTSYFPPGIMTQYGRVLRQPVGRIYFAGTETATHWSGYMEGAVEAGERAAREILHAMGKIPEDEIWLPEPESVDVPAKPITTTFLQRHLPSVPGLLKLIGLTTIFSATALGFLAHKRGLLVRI

MAO-A = biological target: T2, MAO-A (Homo sapiens, UniProt P21397); assay: Monoamine oxidase A substrate assay, human placenta mitochondria, fluorescence detection of indole product
T2 sequence (P21397 1-527): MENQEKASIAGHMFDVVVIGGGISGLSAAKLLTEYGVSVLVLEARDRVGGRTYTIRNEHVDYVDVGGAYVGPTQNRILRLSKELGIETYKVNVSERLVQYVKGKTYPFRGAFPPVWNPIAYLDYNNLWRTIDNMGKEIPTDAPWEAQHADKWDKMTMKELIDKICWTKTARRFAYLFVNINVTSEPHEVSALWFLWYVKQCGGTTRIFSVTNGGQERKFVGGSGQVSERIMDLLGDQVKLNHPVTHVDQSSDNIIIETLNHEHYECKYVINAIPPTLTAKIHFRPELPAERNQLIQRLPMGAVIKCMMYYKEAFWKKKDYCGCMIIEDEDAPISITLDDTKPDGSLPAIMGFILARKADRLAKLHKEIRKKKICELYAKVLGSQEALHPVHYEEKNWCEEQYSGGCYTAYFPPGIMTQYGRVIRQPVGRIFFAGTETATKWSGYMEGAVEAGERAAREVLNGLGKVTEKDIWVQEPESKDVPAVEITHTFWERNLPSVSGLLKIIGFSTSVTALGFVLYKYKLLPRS

[2] = Fluorescence switch / apparent fluorescence increase, product versus substrate; format: physicochemical
Method: Apparent fluorescence increase was calculated by comparing the slopes (arbitrary fluorescence units/μM) of standard curves of chemically synthesized product and substrate concentration versus fluorescence intensity. Calculation of the apparent fluorescence increase is shown below for probe 9, which has a 21000% apparent fluorescence increase in emission intensity at λem=524 nm. The constants fP and fS were calculated from the slope of a line of fluorescence intensity versus concentration of chemically synthesized product indole 10 and substrate 9, respectively. These slopes were obtained from calibration curves of at least five concentrations of 9 and 10 in phosphate buffer (pH 7.4). The preparations of the compounds in mitochondrial assay buffer have negligible effects on fS and fP.

[3] = Solubility in aqueous solution; format: physicochemical; details: in words
Chemical stability = details: in words
[4] = 24-hour incubation, room temperature, pH 7.4

NCCc1cc2oc(=O)ccc2cc1N [III]
Φ ([1]; Table 2, in water, relative to 9,10-diphenyl anthracene (excited at 340 nm)): 0.0017
ε (M^−1cm^−1) ([1]; Table 2 diamines, in water): 2,000 ± 100 M^−1cm^−1
λmax (nm) ([1]; Table 2 diamines, in water): 352 nm
enzyme-catalyzed conversion of diamine to indole (MAO-B; [4]): significant conversion
kcx (MAO-B; Table 6, Monoamine Oxidase B): 20.62 min⁻¹
substrate quality for MAO-B (MAO-B; in words): good substrate for MAO-B
enzyme-catalyzed conversion of diamine to indole (MAO-A; [4]): significant conversion
kcx (MAO-A; Table 6, Monoamine Oxidase A): 0.475 min⁻¹
substrate quality for MAO-A (MAO-A; in words): good substrate for MAO-A

CCN(CC)c1ccc2c(C)c(-c3ccc4[nH]ccc4c3)c(=O)oc2c1 [Probe 17, 7-Diethylamino-3-(1H-indol-5-yl)-4-methyl-chromen-2-one]
emission wavelength [1]: 475 nm
fluorescence, in words [1]: highly fluorescent
fluorescence emission intensity increase, indole/pyrrolocoumarin versus aniline/aminocoumarin [2]: 12 fold
solubility in aqueous solution [3]: reasonably soluble
chemical stability (Chemical stability): chemically and photo-physically stable

Cc1c(-c2ccc(N)c(CCO)c2)c(=O)oc2c3c4c(cc12)CCCN4CCC3 [Probe 23, 9-[4-Amino-3-(2-hydroxy-ethyl)-phenyl]-8-methyl-2,3,5,6-tetrahydro-1H, 4H-11-oxa-3a-aza-benzo[de]anthracen-10-one]
fluorescence emission intensity increase, indole/pyrrolocoumarin versus aniline/aminocoumarin [2]: 6 fold

O=c1ccc2cc3[nH]ccc3cc2o1 [Probe 59, 1H-Pyrano[2,3-f]indol-6-one]
fluorescence, in words [1]: quite fluorescent
fluorescence emission intensity increase, indole/pyrrolocoumarin versus aniline/aminocoumarin [2]: around 2000 fold
